# Measurements published in patent US12714105B2, “Herbicidal mixtures and compositions and methods of use” (priority 2020, dated 2026).
# How the values were obtained:
# Type in all cases: in vivo
# [1] = test system: Large Crabgrass; test: Pre-emergent control of Large Crabgrass in Kentucky bluegrass turf (field trial)
# Protocol: A trial of formulations of the present invention (dithiopyr, isoxaben, MCPP, 2,4-D, and dicamba) was carried out and is shown in Table 2, below. The trial was initiated on Mar. 12, 2019 on Kentucky bluegrass. The turf was maintained at a height of 2½ inches, watered (twice weekly to ½ inch) and fertilized at local recommendations (0.5 lbs. once June 15th). Pre-emergent control of Large Crabgrass was evaluated as a percentage of the area in the test plots (1 xl meter and 3 replicates).
# [2] = test system: broadleaf weeds (Oxalis, Parsley-Preriot and white clover); test: Pre-emergent control of broadleaf weeds in Bermuda grass (field trial); conditions: for Percent Amount of Broadleaf weeds present in Test plots: Percent of SLWC AI's 0, Isoxaben Rate 1144 g ai/ha
# Protocol: A trial of formulations of the present invention (dithiopyr, isoxaben, MCPP, 2,4-D, and dicamba, e.g., dithiopyr and SLWC) was carried out and is shown in Table 6, below. The trial was initiated on Mar. 12, 2019 on Bermuda grass. The turf was maintained at a height of 1½ inches and watered (weekly to ½ inch). Pre-emergent control of broadleaf weeds (Oxalis, Parsley-Preriot and white clover) were evaluated as a percentage of the area in the test plots (1×1 meter and 3 replicates).
# [3] = test system: Broadleaf weeds (dandelions, Oxalis, plantain and white clover); test: Pre-emergent control of Broadleaf weeds in Tall Fescue (field trial); conditions: for Percent Amount of Broadleaf weeds present in Test plots: Percent of SLWC AI's 0, Isoxaben Rate 1144 g ai/ha
# Protocol: (§1) A trial of the formulation of the present invention (dithiopyr, isoxaben, MCPP, 2,4-D, and dicamba, e.g., dithiopyr and SLWC) was carried out and is shown in Table 4, below. The trial was initiated on Mar. 12, 2019 on Tall Fescue. The turf was maintained at the height of 2½ inches and watered (twice weekly to ½ inch). Pre-emergent control of Broadleaf weeds (dandelions, Oxalis, plantain and white clover) was evaluated as a percentage of the area in the test plots (1×1 meter and 3 replicates).
# [4] = test system: Large Crabgrass; test: Pre-emergent control of Large Crabgrass in Tall Fescue turf (field trial)
# Protocol: as §1, with “formulations” for “the formulation”, “dicamba;” for “dicamba,”, “3,” for “4,”, “Large Crabgrass” for “Broadleaf weeds (dandelions, Oxalis, plantain and white clover)”, “(1 xl” for “(1×1”
# [5] = test system: Broadleaf weeds (dandelions, Oxalis, and white clover); test: Pre-emergent control of Broadleaf weeds in Kentucky bluegrass (field trial); conditions: for Percent Amount of Broadleaf weeds present in Test plots: Percent of SLWC AI's 0, Isoxaben Rate 1130 g ai/ha
# Protocol: as §1, with “of formulations” for “of the formulation”, “Table 5,” for “Table 4,”, “on Kentucky bluegrass.” for “on Tall Fescue.”, “at a” for “at the”, “height if” for “height of”, “Oxalis,” for “Oxalis, plantain”
# [6] = 69 DA-A, dithiopyr only, Dithiopyr Rate 280 g ai/ha
# [7] = 83 DA-A, dithiopyr only, Dithiopyr Rate 280 g ai/ha
# [8] = 111 DA-A, dithiopyr only, Dithiopyr Rate 280 g ai/ha
# [9] = 125 DA-A, dithiopyr only, Dithiopyr Rate 280 g ai/ha
# [10] = 139 DA-A, dithiopyr only, Dithiopyr Rate 280 g ai/ha
# [11] = 161 DA-A, dithiopyr only, Dithiopyr Rate 280 g ai/ha
# [12] = 191 DA-A, dithiopyr only, Dithiopyr Rate 280 g ai/ha
compound,measurement,setting,value
"CCC(C)(CC)c1cc(NC(=O)c2c(OC)cccc2OC)on1 [Isoxaben (Gallery 75 DF), Isoxaben]","Large Crabgrass, percentage of the area in the test plots","[1]; 69 DA-A, isoxaben only, LR (labelled rate)",0%
same,"Large Crabgrass, percentage of the area in the test plots","[1]; 83 DA-A, isoxaben only, LR (labelled rate)",0%
same,"Large Crabgrass, percentage of the area in the test plots","[1]; 111 DA-A, isoxaben only, LR (labelled rate)",6%
same,"Large Crabgrass, percentage of the area in the test plots","[1]; 125 DA-A, isoxaben only, LR (labelled rate)",15%
same,"Large Crabgrass, percentage of the area in the test plots","[1]; 139 DA-A, isoxaben only, LR (labelled rate)",30%
same,"Large Crabgrass, percentage of the area in the test plots","[1]; 161 DA-A, isoxaben only, LR (labelled rate)",28.3%
same,"Large Crabgrass, percentage of the area in the test plots","[1]; 191 DA-A, isoxaben only, LR (labelled rate)",73.3%
same,Percent Amount of Broadleaf weeds present in Test plots,[2]; 6 DA-A,6.3%
same,Percent Amount of Broadleaf weeds present in Test plots,[2]; 29 DA-A,8.3%
same,Percent Amount of Broadleaf weeds present in Test plots,[2]; 55 DA-A,11%
same,Percent Amount of Broadleaf weeds present in Test plots,[2]; 83 DA-A,3.3%
same,Percent Amount of Broadleaf weeds present in Test plots,[2]; 111 DA-A,3%
same,Percent Amount of Broadleaf weeds present in Test plots,[2]; 125 DA-A,0%
same,Percent Amount of Broadleaf weeds present in Test plots,[2]; 139 DA-A,0.7%
same,Percent Amount of Broadleaf weeds present in Test plots,[2]; 161 DA-A,0.3%
same,Percent Amount of Broadleaf weeds present in Test plots,[3]; 6 DA-A,3.3%
same,Percent Amount of Broadleaf weeds present in Test plots,[3]; 29 DA-A,2.7%
same,Percent Amount of Broadleaf weeds present in Test plots,[3]; 55 DA-A,2%
same,Percent Amount of Broadleaf weeds present in Test plots,[3]; 83 DA-A,8.3%
same,Percent Amount of Broadleaf weeds present in Test plots,[3]; 111 DA-A,2.7%
same,Percent Amount of Broadleaf weeds present in Test plots,[3]; 125 DA-A,0.7%
same,Percent Amount of Broadleaf weeds present in Test plots,[3]; 139 DA-A,4%
same,Percent Amount of Broadleaf weeds present in Test plots,[3]; 161 DA-A,0%
same,"Large Crabgrass, percentage of the area in the test plots","[4]; 69 DA-A, isoxaben only (rate not given)",0%
same,"Large Crabgrass, percentage of the area in the test plots","[4]; 83 DA-A, isoxaben only (rate not given)",0%
same,"Large Crabgrass, percentage of the area in the test plots","[4]; 111 DA-A, isoxaben only (rate not given)",7.7%
same,"Large Crabgrass, percentage of the area in the test plots","[4]; 125 DA-A, isoxaben only (rate not given)",16%
same,"Large Crabgrass, percentage of the area in the test plots","[4]; 139 DA-A, isoxaben only (rate not given)",21.7%
same,"Large Crabgrass, percentage of the area in the test plots","[4]; 161 DA-A, isoxaben only (rate not given)",58.3%
same,"Large Crabgrass, percentage of the area in the test plots","[4]; 191 DA-A, isoxaben only (rate not given)",63.3%
same,Percent Amount of Broadleaf weeds present in Test plots,[5]; 6 DA-A,4.3%
same,Percent Amount of Broadleaf weeds present in Test plots,[5]; 29 DA-A,5%
same,Percent Amount of Broadleaf weeds present in Test plots,[5]; 55 DA-A,14%
same,Percent Amount of Broadleaf weeds present in Test plots,[5]; 83 DA-A,9.7%
same,Percent Amount of Broadleaf weeds present in Test plots,[5]; 111 DA-A,17.3%
same,Percent Amount of Broadleaf weeds present in Test plots,[5]; 125 DA-A,6.3%
same,Percent Amount of Broadleaf weeds present in Test plots,[5]; 139 DA-A,7.7%
same,Percent Amount of Broadleaf weeds present in Test plots,[5]; 161 DA-A,1.7%
"CSC(=O)c1c(C(F)F)nc(C(F)(F)F)c(C(=O)SC)c1CC(C)C [Dithiopyr (Dimension), Dimethyl 2-(difluoromethyl)-4-(2-methylpropyl)-6-(trifluoromethyl)pyridine-3,5-dicarbothioate]","Large Crabgrass, percentage of the area in the test plots",[1]; [6],0%
same,"Large Crabgrass, percentage of the area in the test plots",[1]; [7],0%
same,"Large Crabgrass, percentage of the area in the test plots",[1]; [8],5.7%
same,"Large Crabgrass, percentage of the area in the test plots",[1]; [9],5%
same,"Large Crabgrass, percentage of the area in the test plots",[1]; [10],16%
same,"Large Crabgrass, percentage of the area in the test plots",[1]; [11],26.7%
same,"Large Crabgrass, percentage of the area in the test plots",[1]; [12],40%
same,effect of the addition of Dithiopyr to SLWC on the pre-emergent control of Large Crabgrass,[1]; in words,did not affect
same,effect of the addition of Dithiopyr to SLWC on the pre-emergent control of broadleaf weeds provided by Isoxaben,[2]; in words,did not affect
same,effect of the addition of Dithiopyr to SLWC on the pre-emergent control of broadleaf weeds provided by Isoxaben,[3]; in words,did not affect
same,"Large Crabgrass, percentage of the area in the test plots",[4]; [6],0%
same,"Large Crabgrass, percentage of the area in the test plots",[4]; [7],0%
same,"Large Crabgrass, percentage of the area in the test plots",[4]; [8],0.7%
same,"Large Crabgrass, percentage of the area in the test plots",[4]; [9],5%
same,"Large Crabgrass, percentage of the area in the test plots",[4]; [10],7.3%
same,"Large Crabgrass, percentage of the area in the test plots",[4]; [11],43.3%
same,"Large Crabgrass, percentage of the area in the test plots",[4]; [12],50%
same,effect of the addition of Dithiopyr to SLWC on the pre-emergent control of Large Crabgrass,[4]; in words,did not affect
same,effect of the addition of Dithiopyr to SLWC on the pre-emergent control of broadleaf weeds provided by Isoxaben,[5]; in words,did not affect
